Results on three compounds are retold here after patent US8835403B2, “Algin oligosaccharides and the derivatives thereof as well as the manufacture and the use of the same” (priority 2004, dated 2014).

Test [1] concerns diabetic mice induced by STZ. Description: Blood glucose of diabetic mice induced by streptozotocin (STZ). The class given is in vivo. The conditions noted are these: dimethyldiguanide 5 mg/kg for 10 days, blood on 11th day; STZ 150 mg/kg i.p. The method, then: Sixty male NIH mice (weighed 18-22 g) are randomly divided to control, model, 50, 150, 450 mg/kg 6-mer-treated and 5 mg/kg dimethyldiguanide-treated groups. The mice are injected intraperitoneally with 150 mg/kg STZ except control group at the 1st day. Then the mice are given accordingly drugs consecutively for 10 days and eyeballs are picked out to extract blood on the 11th day. The blood is taken to measure the glucose concentration.

The test system of another test is MDA. In words: MDA content of cerebral cortex and hippocampus of Aβ1-40-induced AD mice. Type of test: in vivo. The note with it: HBY 0.2 mg/kg.
In the next test the test system is SOD. Description: SOD activity of cerebral cortex and hippocampus of Aβ1-40-induced AD mice. Type of test: in vivo. The note with it: HBY 0.2 mg/kg.
Another test relates to Na+, K+-ATPase. Description: Na+, K+-ATPase activity in cerebral cortex and hippocampus of Aβ1-40-induced AD mice. Type of test: in vivo. The conditions noted are these: HBY 0.2 mg/kg. The method, then:
(§1) Following the behavioral test, rats are decapitated. Cerebral cortex and hippocampus are dissected on ice immediately, and stored at −80° C. after quick freezing in liquid nitrogen for 1 hour. MDA, SOD, GSH-PX, Na^+, K^+-ATPase, AchE and CHAT activities in the brain regions are determined using the respective kits. The homogenates of cerebral cortex and hippocampus are prepared with saline with a final concentration of 10% and 5%. The supernatant were obtained after centrifuging at 3600 rpm to test MDA, CuZn-SOD, GSH-PX, Na^+K^+-ATPase, AchE, and CHAT activities. The activity of ChAT is determined with isotope-labeled method. The other indexes and amount of total proteins are tested with the respective kits supplied by Nanjing Jiancheng Bioengineering Institute.

The subject of a further test is GSH-PX. Description: GSH-PX activity in cerebral cortex and hippocampus of Aβ1-40-induced AD mice. The class given is in vivo. The note with it: HBY 0.2 mg/kg. As to the method:
as §1
The GSH-PX activity in cerebral cortex and hippocampus is decreased after usage of Aβ with significant difference to the control group in hippocampus (p<0.05).

Test [2] concerns AD mice induced by Aβ1-40. Description: Step-through passive avoidance task of AD mice induced by Aβ1-40. Type of test: in vivo. The note with it: HBY 0.2 mg/kg. As to the method: (§2) Male Balb/c mice (18-22 g, purchased from Laboratory Centre of Shandong University) are weighed and randomly assigned to six groups as follows: a control group, a model group, a low-concentration (15 mg/kg) 6-mer-treated group, a middle-concentration (30 mg/kg) 6-mer-treated group, a high-concentration (60 mg/kg) 6-mer-treated group, and a Huperzine A-treated (HBY, with a concentration of 0.2 mg/kg) group. The mice were oral administered with corresponding drugs on day 3 after grouping. The drugs were administered once a day consecutively with a dosage of 0.5 ml/20 g until the experiment is completed. The mice of control and model groups were simultaneously administered with an equivalent amount of normal saline.
On the 25th day after Aβ injection, mice are further trained for step-through passive avoidance task. In the task, each mouse is placed in the illuminated compartment of the apparatus, facing away from the dark compartment, and the door is opened, allowing access to the dark compartment. Once the mouse enters the dark compartment, it receives an inescapable electric shock on the feet (36 V) through the stainless steel grid floor. The test is similarly performed after 24 h. The entry time of each mouse into the dark chamber (step-through latency, maximum testing limited to 3 min) and the number of entries into the dark compartment (number of errors) are recorded.
Each group has 8 animals. The data are presented as mean±SE. The symbol # means significant difference compared with the control group (P<0.05). * means significant difference compared with the model group (P<0.05). The step-through latency of Aβ1-40-treated group is shortened (P<0.01) and the error number is increased (P<0.05) compared with that of the control group, indicating the successful establishment of AD mice.

The subject of test [3] is AD mice induced by Aβ1-40. In words: Morris water maze test of AD mice induced by Aβ1-40. The class given is in vivo. The method, then:
as §2
On the 8th day after drug administration, mice are injected with aged Aβ1-40 except the vehicle group as the method of reference (Jhoo J H et al., β-amyloid (1-42)-induced learning and memory deficits in mice: involvement of oxidative burdens in the hippocampus and cerebral cortex. Behavioural Brain Research (2004) 155: 185-196) to induce the AD model. Aged Aβ1-40 solution is injected into the right cerebral ventricle. […] However, on the 1st day of test, this increased escape latency is shortened in all drug-treated groups except the group treated with 15 mg/kg of 6-mer. And the escape latency of 60 mg/kg 6-mer-treated group has statistical significance compared with that of the model group (P<0.05). On the 2nd and 3rd day of test, the escape latency of all drug-treated groups are shortened, wherein that of 60 mg/kg 6-mer-treated group and HBY-treated group have statistical significance compared with that of the model group (P<0.05).
On the 4th day of Morris water maze test, the original plate is removed and the percentage of time of mice staying at the phase of original plate within 60 s is recorded.

The subject of a further test is ChAT. In words: Cerebral cortex ChAT activity of Aβ1-40-induced AD mice. The note with it: HBY 0.2 mg/kg. Type of test: in vivo.
A further test addresses Aβ1-40 fibril (Homo sapiens, UniProt P05067). In words: Destability of preformed Aβ1-40 fibril (TEM). The class given is biochemical. The note with it: Aβ1-40 aged 7 d, then heparin for additional 24 h (FIG. 10B). As to the method:
1 mg/ml of distilled water-resolved Aβ1-40 is aged at 37° C. for 7d, after which it is exposed to 6-mer for 3 days.

For the next test, the target named is Aβ1-40 (Homo sapiens, UniProt P05067). In words: Conformation of Aβ1-40 by CD spectra. The class given is biochemical. The conditions noted are these: heparin (FIG. 11B). As to the method:
CD spectra (J-[…], JASCO, Japan) of monomeric Aβ1-40 (250 μg/ml in TBS (100 mM Tris, 50 mM NaCl, pH7.4)) incubated at 37° C. for 12 h is mainly characterized by β-sheet secondary structure (FIG. 11A).

Aβ1-40 fibril, sequence (P05067 672-711 limits assumed): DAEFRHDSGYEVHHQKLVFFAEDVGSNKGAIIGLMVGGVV
Aβ1-40, sequence (P05067 672-711 limits assumed): as above

Consider `CN(C)C(=N)NC(=N)N` [Dimethyldiguanide, dimethyldiguanide, reference compound], for which the “Blood glucose concentration” value in test [1] is 201.6 ± 58.9 mg/dL.
Turning to `C/C=C1\[C@H]2C=C(C)C[C@]1(N)c1ccc(=O)[nH]c1C2` [HBY, Huperzine A, reference compound], in the test with MDA (cerebral cortex), the “MDA content (nmol/ml) cerebral cortex” value was found to be 1.61 ± 0.13 nmol/mL. Moreover, the “MDA content (nmol/ml) hippocampus” value in the test on MDA (hippocampus) worked out at 2.26 ± 0.39 nmol/mL. Further, the “SOD activity (NU/mg prot.) cerebral cortex” value with SOD (cerebral cortex) stood at 48.95 ± 2.13 NU/mg prot. Moreover, the “SOD activity (NU/mg prot.) hippocampus” value in the test with SOD (hippocampus) came out at 69.91 ± 6.51 NU/mg prot. In addition, the “ATPase activity (μmol Pi/mg prot./hour) cerebral cortex” value in the test on Na+, K+-ATPase (cerebral cortex) was 0.91 ± 0.05 μmol Pi/mg prot./hour. Besides, the “ATPase activity (μmol Pi/mg prot./hour) hippocampus” value in the test with Na+, K+-ATPase (hippocampus) was 2.35 ± 10.43 μmol Pi/mg prot./hour. In addition, in the test on GSH-PX (cerebral cortex), the “GSH-PX (U/mg prot.) cerebral cortex” value was determined as 8.85 ± 1.33 U/mg prot. Besides, the “GSH-PX (U/mg prot.) hippocampus” value in the test with GSH-PX (hippocampus) is listed as 5.29 ± 0.99 U/mg prot. In addition, the step-through latency entry in [2] (vs model group (FIG. 5)) is “significantly prolonged”. In addition, the number of errors entry in test [2] (vs model group (FIG. 6)) is recorded as “significantly reduced”. Besides, in test [3] (HBY 0.2 mg/kg oral once a day, 1st day of test), the “Escape latency (s) 1st day” value was determined as 76.29 ± 9.74 s. Also, the “Escape latency (s) 2nd day” value in test [3] (HBY 0.2 mg/kg oral once a day, 2nd day of test) was determined as 64.58 ± 10.36 s. Further, the “Escape latency (s) 3rd day” value in test [3] (HBY 0.2 mg/kg oral once a day, 3rd day of test) is 63.83 ± 10.12 s. For the same compound, in test [3] (probe trial, 4th day, within 60 s, HBY 0.2 mg/kg), the “Latency bias(%)” value is reported as 22.18 ± 5.93%. The “ChAT activity (pmol/mg prot./min)” value in the test with ChAT stood at 100.70 ± 5.99 pmol/mg prot./min.
Consider heparin [reference compound], for which the “effect on preformed Aβ1-40 fibers (TEM)” value on Aβ1-40 fibril was “become much denser and longer”. For the same compound, the “conformational transition of Aβ1-40 to β-sheet structure (CD)” value on Aβ1-40 was “significantly accelerates the conformational transition to β-sheet structure”.
